Experimental data as given in patent US20230293407A1, “Compositions Comprising (Bio)-Alkanediols with Antimicrobials for Product Protection” (Symrise AG, priority 2020, published 2023).

What was measured:
Assay in all cases: preservation efficacy test (PET), European Pharmacopoeia 5.1.3
Assay type in all cases: cell-based
Pseudomonas aeruginosa = details: for count at 2 days / count at 7 days / count at 14 days / count at 28 days: PA, use concentration in label; for count at 2 days / PA germ count, 2 days: 2 days after inoculation; for count at 7 days / PA germ count, 7 days: 7 days after inoculation; for count at 14 days / PA germ count, 14 days: 14 days after inoculation; for count at 28 days / PA germ count, 28 days: 28 days after inoculation; for PA germ count, 2 days / PA germ count, 7 days / PA germ count, 14 days / PA germ count, 28 days: substance at given % in test formulation
Staphylococcus aureus = details: for count at 2 days / count at 7 days / count at 14 days / count at 28 days: SA, use concentration in label; for count at 2 days / SA germ count, 2 days: 2 days after inoculation; for count at 7 days / SA germ count, 7 days: 7 days after inoculation; for count at 14 days / SA germ count, 14 days: 14 days after inoculation; for count at 28 days / SA germ count, 28 days: 28 days after inoculation; for SA germ count, 2 days / SA germ count, 7 days / SA germ count, 14 days / SA germ count, 28 days: substance at given % in test formulation
Escherichia coli = details: for count at 2 days / count at 7 days / count at 14 days / count at 28 days: EC, use concentration in label; for count at 2 days / EC germ count, 2 days: 2 days after inoculation; for count at 7 days / EC germ count, 7 days: 7 days after inoculation; for count at 14 days / EC germ count, 14 days: 14 days after inoculation; for count at 28 days / EC germ count, 28 days: 28 days after inoculation; for EC germ count, 2 days / EC germ count, 7 days / EC germ count, 14 days / EC germ count, 28 days: substance at given % in test formulation
Candida albicans = details: for count at 28 days / count at 2 days / count at 7 days / count at 14 days: CA, use concentration in label; for count at 28 days / CA germ count, 28 days: 28 days after inoculation; for count at 7 days / CA germ count, 7 days: 7 days after inoculation; for count at 14 days / CA germ count, 14 days: 14 days after inoculation
Aspergillus brasiliensis = details: for count at 2 days / count at 7 days / count at 14 days / count at 28 days: AB, use concentration in label; for count at 2 days: 2 days after inoculation; for count at 14 days / AB germ count, 14 days: 14 days after inoculation; for count at 28 days / AB germ count, 28 days: 28 days after inoculation
[1] = substance at given % in test formulation

Row | SMILES | count at 2 days (Pseudomonas aeruginosa) | count at 7 days (Pseudomonas aeruginosa) | count at 14 days (Pseudomonas aeruginosa) | count at 28 days (Pseudomonas aeruginosa) | count at 2 days (Staphylococcus aureus) | count at 7 days (Staphylococcus aureus) | count at 14 days (Staphylococcus aureus) | count at 28 days (Staphylococcus aureus) | count at 2 days (Escherichia coli) | count at 7 days (Escherichia coli) | count at 14 days (Escherichia coli) | count at 28 days (Escherichia coli) | count at 28 days (Candida albicans) | count at 2 days (Aspergillus brasiliensis) | count at 7 days (Aspergillus brasiliensis; 7 days after inoculation) | count at 14 days (Aspergillus brasiliensis) | count at 28 days (Aspergillus brasiliensis) | count at 2 days (Candida albicans; 2 days after inoculation) | count at 7 days (Candida albicans) | count at 14 days (Candida albicans) | further results
1 | CCCCCC(O)CO (stereo not drawn) [0.2 % 1,2-heptanediol] | 1 | 1 | 1 | 1 | 84.000 | 2.300 | 1 | 1 | 53.000 | 1.100 | 1 | 1 | 420.000 | 790.000 | 630.000 | 230.000 | 220.000 | – | – | – | –
2 | CCCCC(O)C(C)O (stereo not drawn) [0.4% 2,3-heptanediol] | 1 | 1 | 1 | 1 | – | 12.000 | 1 | 1 | 320.000 | 2.400 | 1 | 1 | 11.000 | 790.000 | 930.000 | 500.000 | 390.000 | 640.000 | 350.000 | 130.000 | –
3 | Cc1ccc(C(C)C)c(O)c1 [0.1% Thymol] | 1 | 1 | 1 | 1 | – | 23.000 | 120 | 1 | 720.000 | 200.000 | 200 | 27 | 1.400 | 580.000 | 520.000 | 290.000 | 650.000 | 69.000 | 640.000 | 180 | –
4 | O=C(OCc1ccccc1)c1ccccc1O [0.2% Benzyl Salicylate] | – | – | – | – | – | – | – | – | – | – | – | – | – | – | – | – | – | – | – | – | PA germ count, 2 days (Pseudomonas aeruginosa): 1.200; PA germ count, 7 days (Pseudomonas aeruginosa): 790; PA germ count, 14 days (Pseudomonas aeruginosa): 160.000; PA germ count, 28 days (Pseudomonas aeruginosa): 44.000; SA germ count, 2 days (Staphylococcus aureus): 670.000; SA germ count, 7 days (Staphylococcus aureus): 9.200; SA germ count, 14 days (Staphylococcus aureus): 1; SA germ count, 28 days (Staphylococcus aureus): 1; EC germ count, 2 days (Escherichia coli): 250.000; EC germ count, 7 days (Escherichia coli): 13.000; EC germ count, 14 days (Escherichia coli): 640; EC germ count, 28 days (Escherichia coli): 430; CA germ count, 7 days (Candida albicans; [1]): 600.000; CA germ count, 14 days (Candida albicans; [1]): 370.000; CA germ count, 28 days (Candida albicans; [1]): 390.000; AB germ count, 14 days (Aspergillus brasiliensis; [1]): 750.000; AB germ count, 28 days (Aspergillus brasiliensis; [1]): 630.000
5 | CC(C)=CCC[C@](C)(O)[C@@H]1CC=C(C)CC1 [0.3% Dragosantol 100] | – | – | – | – | – | – | – | – | – | – | – | – | – | – | – | – | – | – | – | – | PA germ count, 2 days (Pseudomonas aeruginosa): 1; PA germ count, 7 days (Pseudomonas aeruginosa): 1; PA germ count, 14 days (Pseudomonas aeruginosa): 1; PA germ count, 28 days (Pseudomonas aeruginosa): 1; SA germ count, 2 days (Staphylococcus aureus): 370.000; SA germ count, 7 days (Staphylococcus aureus): 290; SA germ count, 14 days (Staphylococcus aureus): 1; SA germ count, 28 days (Staphylococcus aureus): 1; EC germ count, 2 days (Escherichia coli): 120.000; EC germ count, 7 days (Escherichia coli): 200; EC germ count, 14 days (Escherichia coli): 1; EC germ count, 28 days (Escherichia coli): 1; CA germ count, 2 days (Candida albicans; 2 days after inoculation, substance at given % in test formulation): 800.000; CA germ count, 7 days (Candida albicans; [1]): 920.000; CA germ count, 14 days (Candida albicans; [1]): 28.000; CA germ count, 28 days (Candida albicans; [1]): 58.000; AB germ count, 7 days (Aspergillus brasiliensis; 7 days after inoculation, substance at given % in test formulation): 880.000; AB germ count, 14 days (Aspergillus brasiliensis; [1]): 620.000; AB germ count, 28 days (Aspergillus brasiliensis; [1]): 660.000
6 | CCCCCCCC(=O)NO [0.4% caprylhydroxamic acid] | 1 | 1 | 1 | 1 | 1 | 1 | 1 | 1 | 6.900 | 1 | 1 | 1 | 1 | 810.000 | 68.000 | 180 | 1 | 210.000 | 1 | 1 | –
